These results are taken from publication PMC2628638, “Catalytic inhibition of topoisomerase II by a novel rationally designed ATP-competitive purine analogue” (BMC Chemical Biology, 2009).

Assay type in all cases: cell-based
The subject of assay [1] is HL-60 cells. Kind of assay: Proliferation assay over 72 hours. The settings on record: read-out: half-maximal growth inhibitory concentration (GI50).
Another assay deals with HeLa T-Rex cells. Put plainly: Gamma-H2AX In-Cell Western assay (doxorubicin-induced DNA damage). The settings on record: 30 minutes pretreatment, then 1 μM doxorubicin for 2 hours; read-out: IC50, suppression of doxorubicin-induced γH2AX signal. As for the experimental part:
In-Cell Western analysis was carried out as follows. HeLa T-Rex cells were seeded at the cell density of 15 × 10^3 cells per well in black 96-well plates (Greiner Bio-one Vacuette, St Gallen, Switzerland). The day post-seeding, cells were pretreated with increasing concentrations of either ICRF-193, QAP 1 or vehicle (DMSO) for 30 minutes followed by a 2 hours treatment with 1 μM of doxorubicin, or were only treated with the same concentrations of ICRF-193, QAP 1 or vehicle (DMSO) for 2 hours. Treatments were done in triplicate. […] Finally, cells were washed 4 times with 50 μl per well of PBS containing 0.1% Tween-20 for 3 minutes, liquid was removed and plates were kept at 4°C until reading. γH2AX signals were read using the LI-COR Odyssey Infrared Imager with the Odyssey v1.1 software using the 800 nm channel. Blank values correspond to non-specific γH2AX signal detected in wells without primary antibody staining. […] The resulting values for each sample were normalized to the DNA quantity by measuring the corresponding TO-PRO-3 iodide signals. The TO-PRO-3 iodine signals were detected by using the 700 nm channel. The percentage of γH2AX signal was determined for each concentration of ICRF193 and QAP 1 with or without doxorubicin treatment by setting the value for the treatment with vehicle and 1 μM doxorubicin to 100%. […]

Assay [2] relates to HL-60 cells. Kind of assay: Gamma-H2AX Western blot (doxorubicin-induced DNA damage). The settings on record: both drugs 5 μM, 30 minutes pretreatment, doxorubicin 2 hours. On the procedure: Histone extracts of HL-60 or HeLa T-Rex cells for Western blot analysis were prepared as follows: Following treatments, medium was removed and cells were collected/washed with PBS. Cells were centrifuged for 5 minutes at 1500 rpm and 4°C and the cell pellet was resuspended in 300 μl of ice-cold hypotonic buffer (see above). Cells were transferred in a 1.5 ml Eppendorf tube and incubated for 15 minutes on ice. Thereafter, NP-40 was added to the cells to a final concentration of 0.6% (v/v) and cells were disrupted by pumping 10–15 times through a 1 ml syringe connected to a 23-gauge needle. The extract was centrifuged for 10 minutes at 8000 rpm and 4°C. The supernatant (cytoplasmic fraction) was removed and the nuclear pellet was washed once with 500 μl of ice-cold hypotonic buffer for 4 minutes at 8000 rpm. Nuclear proteins were extracted by addition of 22 μl sample buffer and boiling for 3 minutes. Samples were resolved by 15% SDS-PAGE following transfer to PVDF membrane. After blocking, membranes were incubated either with anti-γH2AX (clone JBW301, 05–636, Upstate, Charlottesville, VA, diluted 1:1000 in PBS containing 0.1% Tween 20 and 5% milk) or histone H3 (catalog number 9715, Cell Signaling Technologies Inc., Beverly, MA, diluted 1:1000 in TBS containing 0.1% Tween 20 and 5% milk) antibodies overnight at 4°C.

In assay [3] the test system is HCC1937 BRCA1 mutant and HCC1937 BRCA1 reconstituted cells. Kind of assay: Clonogenic growth assay (WST-1, colony counting). To be noted: continuous treatment for 9 days, WST-1 and colony numbers. On the procedure: HCC1937 BRCA1 mutant and HCC1937 BRCA1 reconstituted breast ductal carcinoma cells were cultured in RPMI-1640 medium supplemented with 10% fetal calf serum, 2 mM L-glutamine, 1 mM sodium pyruvate, 4.5 g/l glucose and 1% (v/v) penicillin/streptomycin. Status of BRCA1 was corroborated by immunoprecipitation using 50 μg nuclear extracts and 1 μg mouse monoclonal antibody MS110 (ab16780, Abcam Inc., Cambridge, MA), which is directed towards the amino-terminus of the protein. Blots were probed with BRCA1 carboxy-terminal specific mouse monoclonal antibody D9 (sc-6954, Santa Cruz Biotechnologies, Santa Cruz, CA) and, following stripping, re-probed with antibody MS110. For assays, 5000 cells in 3 ml medium were seeded per well of 6 well plates in duplicates. The day after, vehicle (DMSO) or compounds were added. After one week medium was exchanged and vehicle or compounds were re-added for an additional two days. To assess proliferation the medium in each well was replaced with 1 ml medium containing 100 μl WST-1 reagent and incubation for 20 minutes at 37°C. Of each sample 110 μl supernatant were transferred into a 96 well plate and the OD was read at 450 nm (filter at 630 nm) on a SpectraMax Plus microtiter plate reader using SoftMax Pro software (Molecular Devices). For background correction, the blank value consisted of 100 μl medium containing 10 μl WST-1. Thereafter, colonies were stained by removing medium, washing cells once with PBS and incubation with 1 ml crystal violet solution for 30 minutes at room temperature. Cells were washed twice with PBS and colonies were counted using an Artec Counter (Model 880, Artec, Dyntatech Laboratories Inc.) with diameter cut-off set to 0.2 mm. Data were expressed as growth or colony numbers relative to vehicle control treatments (100%).
(Tetrazolium assays rely on reduction of a dye to a coloured formazan, in cell work by metabolically active cells.)

The test system of assay [4] is HL-60 cells. Put plainly: Chromosome segregation assay (chromosome spreads). As for the experimental part: HL-60 cells were treated overnight for 16 hours with 2 μg/ml aphidicolin (Sigma-Aldrich corporation, St. Louis, MO) and released by washing twice PBS and resuspending into fresh medium. After 6 hours release the cells were treated with 1 mM caffeine (Lancaster Synthesis, Heysham, Lancashire, UK) and with catalytic topoisomerase II inhibitor or vehicle for 2 hours. Cells were washed once with PBS and incubated with 56 mM KCl hypotonic solution for 30 minutes. Cells were pelleted and carefully resuspended in Carnoy's fixative. Cells were pelleted as above, supernatant was removed and cells were resuspended again in 2 ml fixative. Chromosome spreads were prepared by dropping 50 μl cell suspension onto microscopy slides. The slides were allowed to dry and then stained for 10 seconds in Hoechst 33342 dye (Molecular Probes, Eugene, Oregon, prepared 1:1000 in PBS from 10 mg/ml stock). After drying, mounting media (Vectashield®, Vector Laboratories, Burlingame, CA) and a cover slip were added. Samples were observed using an immersion oil lens (100 ×, Nikon, Plan Apo VC) by fluorescence microscopy (Nikon Eclipse, E600) in the DAPI channel. Images were acquired using analySIS® software (Soft Imaging System GmbH, Münster, Germany). Representative images were converted to grayscale, inverted and contrast adjusted with Adobe Photoshop. Mitotic cells were categorized as described.

As a reminder, the IC50 is the concentration at which inhibition is half-maximal.

Take ICRF-193 [reference compound]: the GI50 in the assay with HL-60 cells [1] worked out at 250 nM. Also, the 50% inhibitory concentration (IC50) in the assay with HeLa T-Rex cells was about 200 nM. Moreover, the “effect of pretreatment on doxorubicin-induced γH2AX (Western blot)” value with HL-60 cells [2] is given as “suppressed”. In assay [3], the “sensitivity of BRCA1 mutant versus BRCA1 reconstituted HCC1937 cells” value is listed as “somewhat more sensitive”. Moreover, the “chromosome segregation at mitosis” value with HL-60 cells [4] (400 nM with 1 mM caffeine for 2 hours after 6 hours release) is on record as “anaphases looked abnormal”; in the assay on HL-60 cells [4] (1 μM with caffeine for 2 hours after 6 hours release from aphidicolin), “no normal anaphases or telophases could be observed”.
